This is an account of results in patent US9174964B2, “AMPK-activating piperidinyloxy-substituted 2,3-dihydro-1H-indene-1-amine compounds and pharmaceutical compositions including the same” (Rigel Pharmaceuticals, Inc., priority 2007, dated 2015).

Counter-ions that a name gives are not always drawn.

One assay concerns the target AMPK. Put plainly: AMPK activation, enzyme-linked immunosorbent assay. It is filed as biochemical. As to conditions: Table 2, AMPK activation, ELISA.
`CC(C)(C)OC(=O)N1CCC(NC(=O)c2ccc(OC3CCN(c4ccc(C(F)(F)F)cc4)CC3)nc2)CC1` [Compound 9, tert-butyl 4-(6-(1-(4-(trifluoromethyl)phenyl)piperidin-4-yloxy)nicotinamido) piperidine-1-carboxylate] showed an EC50 of 100 to 500 nM.

`O=C(NC1CCN(Cc2ccncc2)CC1)c1ccc(OC2CCN(c3ccc(C(F)(F)F)cc3)CC2)nc1` [Compound 10, N-(1-(pyridin-4-ylmethyl)piperidin-4-yl)-6-(1-(4-(trifluoromethyl)phenyl)piperidin-4-yloxy)nicotinamide] gave an EC50 of less than 100 nM.

`N#Cc1ccc(N2CCC(Oc3ccc(C(=O)NC4CCN(Cc5cccnc5)CC4)nc3)CC2)cc1` [Compound 6, N-(1-(pyridin-3-ylmethyl)piperidin-4-yl)-5-(1-(4-cyanophenyl)piperidin-4-yloxy)picolinamide]: the EC50 is 100 to 500 nM.

Compound `CN(C)c1ccc(CN2CCC(NC(=O)c3ccc(OC4CCN(c5ccc(C(F)(F)F)cc5)CC4)cn3)CC2)cc1` [Compound 39, N-(1-(4-(dimethylamino)benzyl)piperidin-4-yl)-5-(1-(4-(trifluoromethyl)phenyl)piperidin-4-yloxy)picolinamide] showed a concentration for a half-maximal effect (EC50) of 100 to 500 nM.

On to `N#Cc1ccc(CN2CCC(NC(=O)c3ccc(OC4CCN(c5ccc(C(F)(F)F)cc5)CC4)nc3)CC2)cc1` [Compound 35, N-(1-(4-cyanobenzyl)piperidin-4-yl)-6-(1-(4-(trifluoromethyl)phenyl)piperidin-4-yloxy)nicotinamide], for which the EC50 was in the range of 100 to 500 nM.

The compound `N#Cc1ccc(CN2CCC(NC(=O)c3ccc(OC4CCN(c5ccc(C(F)(F)F)cc5)CC4)cn3)CC2)cc1` [Compound 4, N-(1-(4-cyanobenzyl)piperidin-4-yl)-5-(1-(4-(trifluoromethyl)phenyl)piperidin-4-yloxy)picolinamide] displayed an EC50 of less than 100 nM.

`N#Cc1ccc(CN2CCC(NC(=O)c3cc(OC4CCN(c5ccc(C(F)(F)F)cc5)CC4)ccn3)CC2)cc1` [Compound 28, N-(1-(4-cyanobenzyl)piperidin-4-yl)-4-(1-(4-(trifluoromethyl)phenyl)piperidin-4-yloxy)picolinamide] showed an EC50 of less than 100 nM.

For `O=C(NC1CCN(Cc2ccncc2)CC1)c1cccc(OC2CCN(c3ccc(C(F)(F)F)cc3)CC2)n1` [Compound 43, N-(1-(pyridin-4-ylmethyl)piperidin-4-yl)-6-(1-(4-(trifluoromethyl)phenyl)piperidin-4-yloxy)picolinamide], the EC50 lay in the range of 1000 to 5000 nM.

As for `CC(C)(C)OC(=O)N1CCC(NC(=O)c2cc(OC3CCN(c4ccc(C(F)(F)F)cc4)CC3)ccn2)CC1` [Compound 12, tert-butyl 4-(4-(1-(4-(trifluoromethyl)phenyl)piperidin-4-yloxy)picolinamido) piperidine-1-carboxylate], the EC50 was in the range of 500 to 1000 nM.

As for `O=C(NC1CCN(Cc2ccc(N3CCOCC3)cc2)CC1)c1ccc(OC2CCN(c3ccc(C(F)(F)F)cc3)CC2)cn1` [Compound 40, N-(1-(4-morpholinobenzyl)piperidin-4-yl)-5-(1-(4-(trifluoromethyl)phenyl)piperidin-4-yloxy)picolinamide], the EC50 is less than 100 nM.

For the compound `O=C(NC1CCNCC1)c1ccnc(OC2CCN(c3ccc(C(F)(F)F)cc3)CC2)c1` [Compound 19, N-(piperidin-4-yl)-2-(1-(4-(trifluoromethyl)phenyl)piperidin-4-yloxy)isonicotinamide], the EC50 lay in the range of 1000 to 5000 nM.

`CC(C)(C)OC(=O)N1CC[C@H](NC(=O)c2ccc(OC3CCN(c4ccc(C(F)(F)F)cc4)CC3)cn2)C1` [Compound 26, (S)-tert-butyl 3-(5-(1-(4-(trifluoromethyl)phenyl)piperidin-4-yloxy)picolinamido) pyrrolidine-1-carboxylate] showed an EC50 of 100 to 500 nM.

Staying with this assay, now noted: Table 3, AMPK activation, ELISA.
In turn, `O=S(=O)(NC1CCN(Cc2ccc(C(F)(F)F)cc2)CC1)c1ccc(OC2CCN(c3ccc(C(F)(F)F)cc3)CC2)nc1` [Compound 58, N-(1-(4-(trifluoromethyl)benzyl)piperidin-4-yl)-6-(1-(4-(trifluoromethyl)phenyl)piperidin-4-yloxy)pyridine-3-sulfonamide] returned an EC50 of less than 100 nM.

The assay is the same for the next values; noted with them: Table 4, AMPK activation, ELISA.
`N#Cc1ccc(CN2CCC(NC(=O)c3cc4ccc(OC5CCN(c6ccc(OC(F)(F)F)cc6)CC5)cc4o3)CC2)cc1` [Compound 89, N-(1-(4-cyanobenzyl)piperidin-4-yl)-6-(1-(4-(trifluoromethoxy)phenyl)piperidin-4-yloxy)benzofuran-2-carboxamide] had an EC50 of less than 100 nM.

`N#Cc1ccc(CN2CCC(Oc3ccc4oc(C(=O)NC5CCN(Cc6ccncc6)CC5)cc4c3)CC2)cc1` [Compound 79, 5-(1-(4-cyanobenzyl)piperidin-4-yloxy)-N-(1-(pyridin-4-ylmethyl)piperidin-4-yl)benzofuran-2-carboxamide] returned a concentration for a half-maximal effect (EC50) of 100 to 500 nM.

Compound `O=C(N[C@@H]1CCNC1)c1cc2cc(OC3CCN(c4ccc(C(F)(F)F)cc4)CC3)ccc2o1` [Compound 121, (R)-N-(pyrrolidin-3-yl)-5-(1-(4-(trifluoromethyl)phenyl)piperidin-4-yloxy)benzofuran-2-carboxamide] showed an EC50 of more than 50000 nM.

Consider `O=C(NC1CCN(Cc2ccncc2)CC1)c1cc2cc(OC3CCN(Cc4ccc(Cl)cc4)CC3)ccc2o1` [Compound 77, 5-(1-(4-chlorobenzyl)piperidin-4-yloxy)-N-(1-(pyridin-4-ylmethyl)piperidin-4-yl)benzofuran-2-carboxamide], for which the EC50 lay within 100 to 500 nM.

`O=C(NC1CCN(C(=O)c2ccncc2)CC1)c1cc2cc(OC3CCN(c4ccc(C(F)(F)F)cc4)CC3)ccc2o1` [Compound 115, N-(1-isonicotinoylpiperidin-4-yl)-5-(1-(4-(trifluoromethyl)phenyl)piperidin-4-yloxy)benzofuran-2-carboxamide] registered an EC50 of less than 100 nM.

`Cc1c(C(=O)NC2CCN(C(=O)OC(C)(C)C)CC2)oc2cc(OC3CCN(c4ccc(C(F)(F)F)cc4)CC3)ccc12` [Compound 61, tert-butyl 4-(3-methyl-6-(1-(4-(trifluoromethyl)phenyl)piperidin-4-yloxy)benzofuran-2-carboxamido)piperidine-1-carboxylate] came in with an EC50 of 100 to 500 nM.

Regarding `O=C(NC1CCNCC1)c1cc2ccc(OC3CCN(c4ccc(C(F)(F)F)cc4)CC3)cc2o1` [Compound 84, N-(piperidin-4-yl)-6-(1-(4-(trifluoromethyl)phenyl)piperidin-4-yloxy)benzofuran-2-carboxamide hydrochloride], the half-maximal effective concentration (EC50) lay in the range of 10000 to 50000 nM.

With `Cc1c(C(=O)NC2CCN(Cc3cccc(C#N)c3)CC2)oc2cc(OC3CCN(c4ccc(C(F)(F)F)cc4)CC3)ccc12` [Compound 66, N-(1-(3-cyanobenzyl)piperidin-4-yl)-3-methyl-6-(1-(4-(trifluoromethyl)phenyl)piperidin-4-yloxy)benzofuran-2-carboxamide], the EC50 was less than 100 nM.

`Cc1c(C(=O)NC2CCN(Cc3ccccc3C#N)CC2)oc2cc(OC3CCN(c4ccc(C(F)(F)F)cc4)CC3)ccc12` [Compound 67, N-(1-(2-cyanobenzyl)piperidin-4-yl)-3-methyl-6-(1-(4-(trifluoromethyl)phenyl)piperidin-4-yloxy)benzofuran-2-carboxamide] came in with an EC50 of less than 100 nM.

As for `O=C(NC1CCN(Cc2ccccc2)CC1)c1cc2cc(OC3CCN(c4ccc(C(F)(F)F)cc4)CC3)ccc2o1` [Compound 75, N-(1-benzylpiperidin-4-yl)-5-(1-(4-(trifluoromethyl)phenyl)piperidin-4-yloxy)benzofuran-2-carboxamide], the EC50 was less than 100 nM.

Turning to `O=C(NC1CCN(Cc2ccc(C(F)(F)F)cc2)CC1)c1cc2cc(OC3CCN(c4ccc(C(F)(F)F)cc4)CC3)ccc2o1` [Compound 100, N-(1-(4-(trifluoromethyl)benzyl)piperidin-4-yl)-5-(1-(4-(trifluoromethyl)phenyl)piperidin-4-yloxy)benzofuran-2-carboxamide], the EC50 was less than 100 nM.

`O=C(NC1CCN(Cc2ccncc2)CC1)c1cc2ccc(OC3CCN(c4ccc(C(F)(F)F)cc4)CC3)cc2o1` [Compound 87, N-(1-(pyridin-4-ylmethyl)piperidin-4-yl)-6-(1-(4-(trifluoromethyl)phenyl)piperidin-4-yloxy)benzofuran-2-carboxamide] registered an EC50 of less than 100 nM.

Turning to `CC(C)(C)OC(=O)N1CCC(NC(=O)c2cc3ccc(OC4CCN(c5ccc(C(F)(F)F)cc5)CC4)cc3o2)CC1` [Compound 82, tert-butyl 4-(6-(1-(4-(trifluoromethyl)phenyl)piperidin-4-yloxy)benzofuran-2-carboxamido)piperidine-1-carboxylate], the half-maximal effective concentration (EC50) was in the range of 100 to 500 nM.

Regarding `CN(C(=O)c1cc2cc(OC3CCN(c4ccc(C(F)(F)F)cc4)CC3)ccc2o1)C1CCN(Cc2cccc(C#N)c2)CC1` [Compound 110, N-(1-(3-cyanobenzyl)piperidin-4-yl)-N-methyl-5-(1-(4-(trifluoromethyl)phenyl)piperidin-4-yloxy)benzofuran-2-carboxamide], the EC50 was less than 100 nM.

The same assay, now with this note: Table 5, AMPK activation, ELISA.
As to `O=C(NC1CCNCC1)c1cc2cc(OC3CCN(c4ccc(C(F)(F)F)cc4)CC3)ccc2s1` [Compound 150, N-(piperidin-4-yl)-5-(1-(4-(trifluoromethyl)phenyl)piperidin-4-yloxy)benzo[b]thiophene-2-carboxamide], the concentration giving a half-maximal response (EC50) fell in the range of 1000 to 50000 nM.

Consider `O=C(NC1CCNCC1)c1sc2cc(OC3CCN(c4ccc(C(F)(F)F)cc4)CC3)ccc2c1Cl` [Compound 148, 3-chloro-N-(piperidin-4-yl)-6-(1-(4-(trifluoromethyl)phenyl)piperidin-4-yloxy)benzo[b]thiophene-2-carboxamide], for which the EC50 was more than 50000 nM.

Regarding `O=C(NC1CCN(Cc2ccncc2)CC1)c1cc2cc(OC3CCN(c4ccc(C(F)(F)F)cc4)CC3)ccc2s1` [Compound 138, N-(1-(pyridin-4-ylmethyl)piperidin-4-yl)-5-(1-(4-(trifluoromethyl)phenyl)piperidin-4-yloxy)benzo[b]thiophene-2-carboxamide], the EC50 was less than 100 nM.

`O=C(NC1CCN(Cc2ccncc2)CC1)c1cc2cc(OC3CCN(c4ccc(OC(F)(F)F)cc4)CC3)ccc2s1` [Compound 137, N-(1-(pyridin-4-ylmethyl)piperidin-4-yl)-5-(1-(4-(trifluoromethoxy)phenyl)piperidin-4-yloxy)benzo[b]thiophene-2-carboxamide] yielded an EC50 of less than 100 nM.

In general, EC50 refers to the concentration giving half of the maximal effect. High values mean a less potent agent, low ones a more potent agent.
